Results: US20100311714A1, “1H-IMIDAZO[4,5-c]QUINOLINONE COMPOUNDS” (priority 2009, published 2010)

Test system: PKB Ser473 phosphorylation in Rat1-myr-HA-p110 alpha cells
Assay: Reverse protein array, PKB Ser473 phosphorylation in Rat1-myr-HA-p110 alpha cells
Format: cell-based
Conditions: Rattus norvegicus, 0.5 h, 30 minutes compound incubation, read-out: p-PKB/IC50_alpha

SMILES | IC50 [nM]
COc1cc(-c2ccc3ncc4c(c3c2)n(-c2ccc(N3CCC(OC)C3)nc2C)c(=O)n4C)cnc1CO (stereo not shown) [Example 28.3, 8-(6-Hydroxymethyl-5-methoxy-pyridin-3-yl)-1-[6-(3-methoxy-pyrrolidin-1-yl)-2-methyl-pyridin-3-yl]-3-methyl-1,3-dihydro-imidazo[4,5-c]quinolin-2-one] | 44.5
Cc1nc(N2CCC(O)C2)ccc1-n1c(=O)n(C)c2cnc3ccc(-c4cnc(N)c(C(F)(F)F)c4)cc3c21 (stereo not shown) [Example 27.3, 8-(6-Amino-5-trifluoromethyl-pyridin-3-yl)-1-[6-(3-hydroxy-pyrrolidin-1-yl)-2-methyl-pyridin-3-yl]-3-methyl-1,3-dihydro-imidazo[4,5-c]quinolin-2-one] | < 4.57
COc1cc(-c2ccc3ncc4c(c3c2)n(-c2ccc(N3CC[C@H](O)C3)nc2C)c(=O)n4C)cnc1CO [Example 32.7, 8-(6-Hydroxymethyl-5-methoxy-pyridin-3-yl)-1-[6-((S)-3-hydroxy-pyrrolidin-1-yl)-2-methyl-pyridin-3-yl]-3-methyl-1,3-dihydro-imidazo[4,5-c]quinolin-2-one] | 61.7
CCNc1cc(-c2ccc3ncc4c(c3c2)n(-c2ccc(N(C)CCO)nc2C)c(=O)n4C)cnc1CO [Example 26.3, 8-(5-Ethylamino-6-hydroxymethyl-pyridin-3-yl)-1-{6-[(2-hydroxy-ethyl)-methyl-amino]-2-methyl-pyridin-3-yl}-3-methyl-1,3-dihydro-imidazo[4,5-c]quinolin-2-one] | < 4.57
COc1cc(-c2ccc3ncc4c(c3c2)n(-c2ccc(N3CC(F)(F)C3)nc2C)c(=O)n4C)cnc1CO [Example 24.4, 1-[6-(3,3-Difluoro-azetidin-1-yl)-2-methyl-pyridin-3-yl]-8-(6-hydroxymethyl-5-methoxy-pyridin-3-yl)-3-methyl-1,3-dihydro-imidazo[4,5-c]quinolin-2-one] | 22.3
COc1ccc(-n2c(=O)n(C)c3cnc4ccc(-c5cnc(CO)c(OC)c5)cc4c32)c(OC)n1 [Example 8.14, 1-(2,6-Dimethoxy-pyridin-3-yl)-8-(6-hydroxymethyl-5-methoxy-pyridin-3-yl)-3-methyl-1,3-dihydro-imidazo[4,5-c]quinolin-2-one] | 35
CCNc1cc(-c2ccc3ncc4c(c3c2)n(-c2ccc(N3CC(F)(F)C(F)(F)C3)nc2C)c(=O)n4C)cnc1CO [Example 35.2, 8-(5-Ethylamino-6-hydroxymethyl-pyridin-3-yl)-3-methyl-1-[2-methyl-6-(3,3,4,4-tetrafluoro-pyrrolidin-1-yl)-pyridin-3-yl]-1,3-dihydro-imidazo[4,5-c]quinolin-2-one] | 4.6
COCc1ncc(-c2ccc3ncc4c(c3c2)n(-c2ccc(F)nc2C)c(=O)n4C)cc1OC [Example 7.7, 1-(6-Fluoro-2-methyl-pyridin-3-yl)-8-(5-methoxy-6-methoxymethyl-pyridin-3-yl)-3-methyl-1,3-dihydro-imidazo[4,5-c]quinolin-2-one] | 96.1
CNc1ncc(-c2ccc3ncc4c(c3c2)n(-c2ccc(N3CC[C@@H](O)C3)nc2C)c(=O)n4C)cn1 [Example 34.1, 1-[6-((R)-3-Hydroxy-pyrrolidin-1-yl)-2-methyl-pyridin-3-yl]-3-methyl-8-(2-methylamino-pyrimidin-5-yl)-1,3-dihydro-imidazo[4,5-c]quinolin-2-one] | 13
Cc1nc(F)ccc1-n1c(=O)n(C)c2cnc3ccc(-c4cncc(N5CCC5)c4)cc3c21 [Example 7.6, 8-(5-Azetidin-1-yl-pyridin-3-yl)-1-(6-fluoro-2-methyl-pyridin-3-yl)-3-methyl-1,3-dihydro-imidazo[4,5-c]quinolin-2-one] | 34.4
Cc1nc(N2CCC(O)C2)ccc1-n1c(=O)n(C)c2cnc3ccc(-c4cncc(C(C)(C)O)c4)cc3c21 (stereo not shown) [Example 27.5, 8-[5-(1-Hydroxy-1-methyl-ethyl)-pyridin-3-yl]-1-[6-(3-hydroxy-pyrrolidin-1-yl)-2-methyl-pyridin-3-yl]-3-methyl-1,3-dihydro-imidazo[4,5-c]quinolin-2-one] | 160
COc1cc(-c2ccc3ncc4c(c3c2)n(-c2ccc(N)nc2C)c(=O)n4C)cnc1CO [Example 30.1, 1-(6-Amino-2-methyl-pyridin-3-yl)-8-(6-hydroxymethyl-5-methoxy-pyridin-3-yl)-3-methyl-1,3-dihydro-imidazo[4,5-c]quinolin-2-one] | 53.6
COc1cc(-c2ccc3ncc4c(c3c2)n(-c2ccc(F)nc2C)c(=O)n4C)cnc1CO [Example 7.10, 1-(6-Fluoro-2-methyl-pyridin-3-yl)-8-(6-hydroxymethyl-5-methoxy-pyridin-3-yl)-3-methyl-1,3-dihydro-imidazo[4,5-c]quinolin-2-one] | 123
COCc1ncc(-c2ccc3ncc4c(c3c2)n(-c2cccnc2C)c(=O)n4C)cc1OC [Example 2.30, 8-(5-Methoxy-6-methoxymethyl-pyridin-3-yl)-3-methyl-1-(2-methyl-pyridin-3-yl)-1,3-dihydro-imidazo[4,5-c]quinolin-2-one] | 52.2
Cn1c(=O)n(-c2cccnc2F)c2c3cc(-c4cnc5[nH]ccc5c4)ccc3ncc21 [Example 6.3, 1-(2-Fluoro-pyridin-3-yl)-3-methyl-8-(1H-pyrrolo[2,3-b]pyridin-5-yl)-1,3-dihydro-imidazo[4,5-c]quinolin-2-one] | 13.7
COc1ccc(-n2c(=O)n(C)c3cnc4ccc(-c5cnc(C(OC)OC)c(OC)c5)cc4c32)c(OC)n1 [Example 8.13, 8-(6-Dimethoxymethyl-5-methoxy-pyridin-3-yl)-1-(2,6-dimethoxy-pyridin-3-yl)-3-methyl-1,3-dihydro-imidazo[4,5-c]quinolin-2-one] | 208
Cc1nc(N2CC(O)C2)ccc1-n1c(=O)n(C)c2cnc3ccc(-c4cncc(C(C)(C)O)c4)cc3c21 [Example 29.1, 1-[6-(3-Hydroxy-azetidin-1-yl)-2-methyl-pyridin-3-yl]-8-[5-(1-hydroxy-1-methyl-ethyl)-pyridin-3-yl]-3-methyl-1,3-dihydro-imidazo[4,5-c]quinolin-2-one] | 335
COc1ccc(-n2c(=O)n(C)c3cnc4ccc(-c5cncc(N6CCC6)c5)cc4c32)c(OC)n1 [Example 8.11, 8-(5-Azetidin-1-yl-pyridin-3-yl)-1-(2,6-dimethoxy-pyridin-3-yl)-3-methyl-1,3-dihydro-imidazo[4,5-c]quinolin-2-one] | < 4.57
CNc1ncc(-c2ccc3ncc4c(c3c2)n(-c2ccc(N3CCC(OC)C3)nc2C)c(=O)n4C)cn1 (stereo not shown) [Example 28.2, 1-[6-(3-Methoxy-pyrrolidin-1-yl)-2-methyl-pyridin-3-yl]-3-methyl-8-(2-methylamino-pyrimidin-5-yl)-1,3-dihydro-imidazo[4,5-c]quinolin-2-one] | 9.1
COc1cc(-c2ccc3ncc4c(c3c2)n(-c2ccc(N3CCCC3)nc2C)c(=O)n4C)cnc1CO [Example 25.4, 8-(6-Hydroxymethyl-5-methoxy-pyridin-3-yl)-3-methyl-1-(2-methyl-6-pyrrolidin-1-yl-pyridin-3-yl)-1,3-dihydro-imidazo[4,5-c]quinolin-2-one] | 27.5
CCNc1cc(-c2ccc3ncc4c(c3c2)n(-c2ccc(N3CCCC3)nc2C)c(=O)n4C)cnc1CO [Example 25.5, 8-(5-Ethylamino-6-hydroxymethyl-pyridin-3-yl)-3-methyl-1-(2-methyl-6-pyrrolidin-1-yl-pyridin-3-yl)-1,3-dihydro-imidazo[4,5-c]quinolin-2-one] | < 4.57
CNc1ncc(-c2ccc3ncc4c(c3c2)n(-c2ccc(N3CC[C@H](O)C3)nc2C)c(=O)n4C)cc1Cl [Example 32.4, 8-(5-Chloro-6-methylamino-pyridin-3-yl)-1-[6-((S)-3-hydroxy-pyrrolidin-1-yl)-2-methyl-pyridin-3-yl]-3-methyl-1,3-dihydro-imidazo[4,5-c]quinolin-2-one] | 8
CCOc1ccc(-c2ccc3ncc4c(c3c2)n(-c2ccc(N3CCC(O)C3)nc2C)c(=O)n4C)cn1 (stereo not shown) [Example 27.4, 8-(6-Ethoxy-pyridin-3-yl)-1-[6-(3-hydroxy-pyrrolidin-1-yl)-2-methyl-pyridin-3-yl]-3-methyl-1,3-dihydro-imidazo[4,5-c]quinolin-2-one] | < 4.57
Cc1ncccc1-n1c(=O)n(C)c2cnc3ccc(-c4cnc5[nH]ccc5c4)cc3c21 [Example 2.8, 3-Methyl-1-(2-methyl-pyridin-3-yl)-8-(1H-pyrrolo[2,3-b]pyridin-5-yl)-1,3-dihydro-imidazo[4,5-c]quinolin-2-one] | 6.84
CNC(=O)c1ccc(-c2ccc3ncc4c(c3c2)n(-c2cccnc2C)c(=O)n4C)cc1 [Example 2.4, N-Methyl-4-[3-methyl-1-(2-methyl-pyridin-3-yl)-2-oxo-2,3-dihydro-1H-imidazo[4,5-c]quinolin-8-yl]-benzamide] | 14.6
